Common to all, as to experiment: NCI tumour cell line growth inhibition, 48 h
Assay [1] concerns HL-60(TB) leukemia.
The test system of assay [2] is KM12 colon.
For assay [3], the system named is SK-OV-3 ovarian.
In assay [4] the test system is OVCAR-8 ovarian.
In assay [5] the test system is 786-0 renal.
The subject of assay [6] is SF-268 CNS.
Assay [7] relates to SK-MEL-28 melanoma.
Assay [8] has as its system HCT-15 colon.
The test system of assay [9] is M14 melanoma.
In assay [10] the test system is DU-145 prostate.

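Results reflect a 48-hour exposure of cells in 96-well plates to compound at five concentrations. The concentration for 50% growth inhibition is given as GI50. TGI denotes the concentration required for complete inhibition of growth.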

As to `OC1CCCC1C(O)(C(F)(F)F)C(F)(F)F` (configuration not stated), the TGI in assay [1], in assay [2], in assay [3], in assay [4], in [5] and in assay [6] was > 100 µM in each case. The TGI in assay [7], in [8], in assay [9] and in assay [10] was > 100 µM each time.

Take `COc1ccc(/C=C/c2cc(O)cc(OC)c2)cc1`: the TGI in [1], in assay [2], in assay [3], in [4], in [5] and in assay [6] was > 100 µM in each case. Also, the TGI in [7] was > 100 µM; in assay [8], 14.4 µM; in assay [9], > 100 µM; in assay [10] it was > 100 µM.

In the case of `COC(=O)C1=C(O)C(C(=O)OC)[C@@]2(O)[C@@H](C(=O)OC)C(c3ccc(OC(=O)/C(=C/c4ccc(Cl)cc4)c4ccc(Cl)cc4)cc3)C[C@@H]1[C@@H]2C(=O)OC` (some centres not stated), the TGI in assay [1], in [2], in [3], in [4], in assay [5] and in [6] was > 100 µM each time. The TGI in assay [7] is > 100 µM; in assay [8] it was > 100 µM; in [9], 41.8 µM; in [10], > 100 µM.

Turning to `O=C1c2[nH]cc(CN3CCNCC3)c2C(=O)c2c1c(O)c1ccccc1c2O`, the GI50 in assay [1] is 22 µM; in assay [2] it was 20.9 µM; in [3], 5.76 µM; in [6], 22.9 µM; in assay [7], 1.62 µM; in assay [8], 1.31 µM. Also, the GI50 is 1.53 µM in assay [9] and 1.67 µM in [10]. Also, the TGI in assay [1] is > 100 µM; in [2] it was 53 µM; in assay [3] it was 27.7 µM; in assay [6] it was 66.4 µM; in assay [7] it was 3.6 µM; in assay [8] it was 2.7 µM. Also, the TGI in assay [9] worked out at 3.23 µM; in [10], 3.06 µM.

As to `CN(C)C[C@H]1CC[C@@H](CN(C)C)C1=O`, the TGI in [1] is 4.1 µM; in [2], 27.5 µM; in assay [3], > 50 µM; in assay [4], 17.1 µM; in [5], 12.8 µM; in assay [6] it was 25.1 µM. Besides, the TGI in assay [7] is 12.2 µM; in [8] it was 11 µM; in assay [9], 16.7 µM; in assay [10] it was > 50 µM.

Turning to `C/C(=N\NC(N)=O)C(CN1CCCCC1)C(c1ccccc1)c1c(O)c2ccccc2oc1=O` (configuration not stated), the TGI in assay [1] is > 72.9 µM; in [2], > 100 µM; in assay [3] it was > 100 µM; in assay [4] it was > 100 µM; in assay [5], > 59.5 µM; in assay [6], > 100 µM. In addition, the TGI in assay [7], in assay [8], in assay [9] and in [10] was > 100 µM throughout. Also, the GI50 in assay [10] is > 100 µM.

As to `CC1(C)O[C@@H](CO)[C@H]([C@@]23OC[C@H]4OC(C)(C)OC4[C@@H]2OC(C)(C)O3)O1` (some centres not stated), the TGI in [1], in assay [2], in assay [3], in assay [4], in [5] and in [6] was > 100 µM each time. The TGI in assay [7], in assay [8], in assay [9] and in assay [10] was > 100 µM each time.

On to `O=C1/C(=C/c2ccccc2)CCc2ccc(Cl)nc21`, for which the TGI in assay [1] is 0.705 µM; in [2], 7.15 µM; in assay [3] it was 73 µM; in [4], > 100 µM; in assay [5], 21.8 µM; in [6], > 64.8 µM. The TGI was 39.6 µM in assay [7], 11.4 µM in assay [8], 23.6 µM in assay [9] and 24.4 µM in [10].

Consider `Cc1cccc(C(C)(C)C)c1NC(=O)/C(Cc1nc2ccc([N+](=O)[O-])cc2[nH]c1=O)=N/NC(=O)C[N+](C)(C)C`, for which the TGI in assay [1], in assay [2], in assay [3], in [4], in assay [5] and in assay [6] was > 100 µM throughout. Further, the TGI in assay [7], in assay [8], in assay [9] and in assay [10] was > 100 µM each time.

With `CC(=O)/C=C/C=C(\C)CC/C=C(\C)CC(C)C`, the TGI is 33.4 µM in [1]; 95.3 µM in assay [2]; > 100 µM in assay [3]; 65.8 µM in [4]; 97.3 µM in [5]; > 100 µM in assay [6]. Further, the TGI in [7] was > 100 µM; in assay [8], 30.6 µM; in assay [9], > 100 µM; in [10] it was > 100 µM.

Regarding `CCOC(=O)c1ccc2nc(NC(=O)COC(=O)CSc3nc(C)cc(C)n3)sc2c1`, the TGI in assay [1] is 33.9 µM; in [2], > 100 µM; in assay [3] it was > 100 µM; in assay [4], > 100 µM; in assay [5], > 100 µM; in assay [6], > 100 µM. For the same compound, the TGI in [7], in assay [8], in [9] and in assay [10] was > 100 µM each time.

In the case of `Cc1cc(S(=O)(=O)Nc2nnc3c(C(F)(F)F)cc(Cl)cn23)c(S)cc1Cl`, the TGI in assay [1], in [2], in assay [3], in assay [4], in assay [5] and in assay [6] was > 100 µM each time. The TGI in [7], in [8], in assay [9] and in assay [10] was > 100 µM throughout.

As to `CCC1(CC)C(=O)CC[C@@]2(C)C1=CC[C@H]1[C@@H]3CC[C@H](O)[C@@]3(C)CC[C@@H]12`, the TGI in assay [1] is 46.4 µM; in assay [2], > 100 µM; in assay [3], > 100 µM; in [4], 56.5 µM; in assay [5], 29.6 µM; in [6], 99.2 µM. Moreover, the TGI in [7] was > 100 µM; in assay [8], > 100 µM; in assay [9] it was > 100 µM; in assay [10] it was 85.4 µM.

The values are drawn from PubChem BioAssay (NCI).
